Test results taken from article PMC8745263 (International Journal of Molecular Sciences, 2021).
“Also recorded” adds a separate entry of the source. Square brackets hold non-standard residues; d marks the D form. Peptide text beside a SMILES is read from it. Met(O) = CS(=O)CC[C@H](N)C(=O)O

Experiments:
[1] = target: T1, APEH partially purified from human blood cells (Homo sapiens, UniProt P13798); experiment: Treatment of peptides with APEH and assessment of proteolysis by LC-MS; format: biochemical; conditions: 10 nmol/200 μL peptide, APEH 0.7 μg, 37 °C, 48 h; for % fragment cleaved on carboxy side of H59 (Ac-...HTH, lacking LVQQA), percentage of the initial substrate / % fragment cleaved on carboxy side of Q62 (Ac-...HTHLVQ, lacking QA), percentage of the initial substrate / % intact peptide left after APEH exposure (percentage of the initial substrate): Tris-HCl 25 mM pH 7.5, EIC peak areas, average of three independent experiments; for % Degradation (overall % of peptide degraded upon exposure to APEH): sum of fragment % of Table 2(a), Tris-HCl 25 mM pH 7.5, N.D. = not degraded
T1 construct: incubated with APEH partially purified from human blood cells; from tissue; host or cells: human red blood cells (erythrocyte hemolysate from donors' blood)
T1 sequence (P13798 1-732): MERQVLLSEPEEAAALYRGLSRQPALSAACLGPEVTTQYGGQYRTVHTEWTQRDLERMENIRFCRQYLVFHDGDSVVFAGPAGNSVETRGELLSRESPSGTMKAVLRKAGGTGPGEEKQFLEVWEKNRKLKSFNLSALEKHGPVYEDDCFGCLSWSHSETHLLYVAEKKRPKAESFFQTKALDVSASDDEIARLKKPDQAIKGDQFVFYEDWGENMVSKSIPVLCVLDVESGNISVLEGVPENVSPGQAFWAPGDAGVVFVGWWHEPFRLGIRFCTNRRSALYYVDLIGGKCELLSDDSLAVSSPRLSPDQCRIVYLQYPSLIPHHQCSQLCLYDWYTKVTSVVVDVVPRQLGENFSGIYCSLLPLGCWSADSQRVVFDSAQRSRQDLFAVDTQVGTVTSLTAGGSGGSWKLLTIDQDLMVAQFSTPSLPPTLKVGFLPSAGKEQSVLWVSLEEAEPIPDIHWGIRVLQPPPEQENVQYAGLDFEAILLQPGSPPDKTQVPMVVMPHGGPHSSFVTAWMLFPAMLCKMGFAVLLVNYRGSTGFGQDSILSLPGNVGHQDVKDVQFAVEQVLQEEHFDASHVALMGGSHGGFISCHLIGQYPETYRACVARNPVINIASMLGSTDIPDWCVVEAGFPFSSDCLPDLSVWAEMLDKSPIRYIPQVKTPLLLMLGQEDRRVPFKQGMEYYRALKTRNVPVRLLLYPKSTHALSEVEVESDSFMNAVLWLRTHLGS
Description: In order to identify the potential cleavage sites of APEH on the oxidized GDF11[48-64], the peptide was incubated alone or in combination with the enzyme and the corresponding reaction mixtures were analyzed by LC-MS. The same experiments were performed using the non-oxidized analogues as control.
Blood samples were taken from donors using syringes with heparin. In accordance with ethical principles stated in the Declaration of Helsinki, as well as with approved national and international guidelines for human research, a written informed consent was obtained from participants. The erythrocytes were separated from the plasma by centrifugation at 1800× g for 5 min at 4 °C and washed twice with an isotonic solution (10 mM Tris-HCl pH 7.6, […]; 4 °C). Lysis of erythrocytes was carried out by incubation in hypotonic solution (25 mM Tris/HCl, pH 7.5) for 30 min on ice. The hemolysate was obtained by centrifugation of the lysate at 9200× g for 40 min at 4 °C. Then, the ‘soluble fraction’ was loaded onto a DEAE Sepharose Fast Flow column, connected to an AKTA FPLC system (Amersham Biosciences, Amersham, UK), previously equilibrated in 25 mM Tris-HCl (pH 7.5) (buffer A). The bound proteins were eluted using a linear ionic strength gradient (0–100%) of 1 M NaCl in buffer A at a flow rate of 1 mL min^−1. The active fractions were collected, pooled, dialyzed against 25 mM Tris-HCl pH 7.5 and loaded on a Superdex 200 PC 3.2/30 column (Pharmacia Biotech, Stockholm, Sweden) connected to a SMART System (Pharmacia Biotech, Stockholm, Sweden). The bound proteins were eluted with 25 mM Tris-HCl buffer, pH 7.5, containing 50 mM NaCl, at a flow rate of 0.1 mL min^−1. The active fractions were collected, pooled, dialyzed against 25 mM Tris-HCl pH 7.5 and stored in the same buffer supplemented with 5% glycerol. Enzyme purification was monitored using Ac-Met-7-amino-4-methylcoumarin (AMC) as substrate. Active fractions were analyzed by SDS-PAGE (12%) in order to evaluate the enrichment of the protein during the various purification steps. The protein was also characterized by Western Blot analysis. Aliquots of protein samples were subjected to SDS-PAGE (8%), and then electroblotted onto PVDF membranes (ImmobilonTM, Millipore, Milan, Italy). Membranes were next incubated with the specific primary antibody (sc-102311, 1:5000, Santa Cruz Biotechnology, USA) and then with the horseradish peroxidase-conjugated secondary antibody for 1 h at 37 °C (1:5000, Santa Cruz Biotechnology, Dallas, TX, USA). The immune complexes formed were visualized by enhanced chemiluminescence and autoradiography, according to the manufacturer’s protocol (Amersham Biosciences, Amersham, UK). Molecular mass of the native enzyme was established by gel filtration chromatography on a Superdex 200 PC 3.2/30 column (Pharmacia Biotech, Stockholm, Sweden), connected to a SMART system (Pharmacia Biotech, Stockholm, Sweden), and calibrated with BioRad gel filtration standards (BioRad, Milano, Italy; code 151-1901). The enzyme inhibition assay was performed on APEH preparation using the selective and potent inhibitor AA74-1 (SML0358, Sigma-Aldrich, Milano, Italy). Mixtures containing appropriate amount of inhibitor (62 µM) and APEH sample (0.7 μg) were pre-incubated for 30 min at 37 °C; then the substrate Ac-Met-7-amino-4-methylcoumarin (AMC) was added to the assay mixture and the enzymatic activity was followed as previously described. Control samples were prepared by pre-incubating the same amounts of APEH without the inhibitor and then assayed following the same procedure.
In total, 10 nmol/200 μL of each molecule was incubated with APEH partially purified from human blood cells (0.7 μg, 24.000 total units) at 37 °C for 48 h in Tris-HCl 25 mM pH 7.5. […]

APEH = APEH partially purified from human blood cells (0.7 μg, 24.000 total units) in Tris-HCl 25 mM pH 7.5; conditions: 37 °C, up to 48 h

Row | Compound | % fragment cleaved on carboxy side of H59 (Ac-...HTH, lacking LVQQA), percentage of the initial substrate [1] [%] | % fragment cleaved on carboxy side of Q62 (Ac-...HTHLVQ, lacking QA), percentage of the initial substrate [1] | % intact peptide left after APEH exposure (percentage of the initial substrate) [1] [%] | % Degradation (overall % of peptide degraded upon exposure to APEH) [1] | cleaved bond (APEH) | also measured
1 | CC(=O)N[C@@H](CCC(=O)O)C(=O)N[C@@H](Cc1ccc(O)cc1)C(=O)N[C@@H](CC[S+](C)[O-])C(=O)N[C@@H](C)C(=O)N[C@@H](C)C(=O)N[C@@H](CCC(N)=O)C(=O)N[C@@H](CCCCN)C(=O)N[C@@H](Cc1ccc(O)cc1)C(=O)N1CCC[C@H]1C(=O)N[C@@H](Cc1c[nH]cn1)C(=O)N[C@H](C(=O)N[C@@H](Cc1c[nH]cn1)C(=O)N[C@@H](CC(C)C)C(=O)N[C@H](C(=O)N[C@@H](CCC(N)=O)C(=O)N[C@@H](CCC(N)=O)C(=O)N[C@@H](C)C(N)=O)C(C)C)[C@@H](C)O (stereo partly drawn) [GDF11[48-64] F51M52AA ox] (Ac-EY[Met(O)]AAQKYPHTHLVQQA-NH2) | 16.5 | 0.3% | 83.2 | 16.8% |  | 
2 | CC(=O)N[C@@H](CCC(=O)O)C(=O)N[C@@H](Cc1ccc(O)cc1)C(=O)N[C@@H](CC[S+](C)[O-])C(=O)N[C@@H](Cc1ccccc1)C(=O)N[C@@H](CC[S+](C)[O-])C(=O)N[C@@H](CCC(N)=O)C(=O)N[C@@H](CCC(=O)O)C(=O)N[C@@H](Cc1ccc(O)cc1)C(=O)N1CCC[C@H]1C(=O)N[C@@H](Cc1c[nH]cn1)C(=O)N[C@H](C(=O)N[C@@H](Cc1c[nH]cn1)C(=O)N[C@@H](CC(C)C)C(=O)N[C@H](C(=O)N[C@@H](CCC(N)=O)C(=O)N[C@@H](CCC(N)=O)C(=O)N[C@@H](C)C(N)=O)C(C)C)[C@@H](C)O (stereo partly drawn) [GDF11[48-64] K54E ox] (Ac-EY[Met(O)]F[Met(O)]QEYPHTHLVQQA-NH2) | 18.7 | did not undergo cleavage | 81.3 | 18.7% |  | 
3 | CC(=O)N[C@@H](CCC(=O)O)C(=O)N[C@@H](Cc1ccc(O)cc1)C(=O)N[C@@H](C)C(=O)N[C@@H](C)C(=O)N[C@@H](CC[S+](C)[O-])C(=O)N[C@@H](CCC(N)=O)C(=O)N[C@@H](CCCCN)C(=O)N[C@@H](Cc1ccc(O)cc1)C(=O)N1CCC[C@H]1C(=O)N[C@@H](Cc1c[nH]cn1)C(=O)N[C@H](C(=O)N[C@@H](Cc1c[nH]cn1)C(=O)N[C@@H](CC(C)C)C(=O)N[C@H](C(=O)N[C@@H](CCC(N)=O)C(=O)N[C@@H](CCC(N)=O)C(=O)N[C@@H](C)C(N)=O)C(C)C)[C@@H](C)O (stereo partly drawn) [GDF11[48-64] M50F51AA ox] (Ac-EYAA[Met(O)]QKYPHTHLVQQA-NH2) | 11.3 | 2.0% | 86.7 | about 13% |  | % fragment cleaved on carboxy side of H59 (Ac-...HTH, lacking LVQQA), percentage of the initial substrate ([1]; listed as M50F51AA): about 11%; % Degradation (overall % of peptide degraded upon exposure to APEH) ([1]; listed as GDF11[48-64]ox M50F51AA): 13.3%
4 | Ac-EAM(ox)FM(ox)QKYPHTHLVQQA-NH2 |  |  |  |  | Q62-Q; also recorded: H59-L | 
5 | Ac-EYAFAQKYPHTHLVQQA-NH2 |  |  |  |  |  | not cleaved (APEH): 100% intact; N.D. (not degraded) after 48 h
6 | Ac-EYM(ox)AAQKYPHTHLVQQA-NH2 |  |  |  |  | Q62-Q; also recorded: H59-L, major | 
7 | Ac-EYM(ox)FM(ox)QEYPHTHLVQQA-NH2 |  |  |  |  |  | not cleaved (APEH): did not undergo cleavage on Q62

More lines, main results first:

Row | % fragment cleaved on carboxy side of H59 (Ac-...HTH, lacking LVQQA), percentage of the initial substrate [1] [%] | % fragment cleaved on carboxy side of Q62 (Ac-...HTHLVQ, lacking QA), percentage of the initial substrate [1] | % intact peptide left after APEH exposure (percentage of the initial substrate) [1] [%] | % Degradation (overall % of peptide degraded upon exposure to APEH) [1] | cleaved bond (APEH) | Compound | also measured
8 | 11.7 | 3.3% | 85.0 | 15.0% |  | CC(=O)N[C@@H](CCC(=O)O)C(=O)N[C@@H](Cc1ccc(O)cc1)C(=O)N[C@@H](CC[S+](C)[O-])C(=O)N[C@@H](C)C(=O)N[C@@H](CC[S+](C)[O-])C(=O)N[C@@H](CCC(N)=O)C(=O)N[C@@H](CCCCN)C(=O)N[C@@H](Cc1ccc(O)cc1)C(=O)N1CCC[C@H]1C(=O)N[C@@H](Cc1c[nH]cn1)C(=O)N[C@H](C(=O)N[C@@H](Cc1c[nH]cn1)C(=O)N[C@@H](CC(C)C)C(=O)N[C@H](C(=O)N[C@@H](CCC(N)=O)C(=O)N[C@@H](CCC(N)=O)C(=O)N[C@@H](C)C(N)=O)C(C)C)[C@@H](C)O (stereo partly drawn) [GDF11[48-64] F51A ox] (Ac-EY[Met(O)]A[Met(O)]QKYPHTHLVQQA-NH2) | 
9 | 11.5 | 10.2% | 78.3 | 21.7% |  | CC(=O)N[C@@H](CCC(=O)O)C(=O)N[C@@H](C)C(=O)N[C@@H](CC[S+](C)[O-])C(=O)N[C@@H](Cc1ccccc1)C(=O)N[C@@H](CC[S+](C)[O-])C(=O)N[C@@H](CCC(N)=O)C(=O)N[C@@H](CCCCN)C(=O)N[C@@H](Cc1ccc(O)cc1)C(=O)N1CCC[C@H]1C(=O)N[C@@H](Cc1c[nH]cn1)C(=O)N[C@H](C(=O)N[C@@H](Cc1c[nH]cn1)C(=O)N[C@@H](CC(C)C)C(=O)N[C@H](C(=O)N[C@@H](CCC(N)=O)C(=O)N[C@@H](CCC(N)=O)C(=O)N[C@@H](C)C(N)=O)C(C)C)[C@@H](C)O (stereo partly drawn) [GDF11[48-64] Y49A ox] (Ac-EA[Met(O)]F[Met(O)]QKYPHTHLVQQA-NH2) | % fragment cleaved on carboxy side of H59 (Ac-...HTH, lacking LVQQA), percentage of the initial substrate ([1]; listed as Y49A): about 11%
10 |  |  |  |  | Q62-Q; also recorded: H59-L, major | Ac-EYAAM(ox)QKYPHTHLVQQA-NH2 | 
11 |  |  | 100 |  |  | Ac-EYAFAQKYPHTHLVQQA-NH2 [GDF11[48-65] M50M52AA, control peptide where the two methionines were replaced with alanine residues] | 
12 |  |  |  |  | Q62-Q; also recorded: H59-L, major | Ac-EYM(ox)AM(ox)QKYPHTHLVQQA-NH2 | 
